Counter-ions that a name gives are not always drawn.
Tested on: mouse macrophage cell line Raw 264.7
Test: TNF-α inhibition in mouse cells
Assay type: cell-based
Conditions: Raw 264.7 cells stimulated by lipopolysaccharide (LPS); single concentration 5 μM or dose response 0.03-10 μM; TNF-α by ELISA
Experimental: The compounds of Formulas I, II, III, IV, V, VI, VII, and VIII are useful as immune response modifiers (IRMs) due to their ability to modulate cytokine biosynthesis (e.g., induce or inhibit the biosynthesis or production of one or more cytokines) and otherwise modulate the immune response when administered to animals. Compounds can be tested per the test procedures described in the Examples Section. Compounds can be tested for induction of cytokine biosynthesis by incubating human peripheral blood mononuclear cells (PBMC) in a culture with the compound(s) at a concentration range of 30 to 0.014 μM and analyzing for interferon (α) or tumor necrosis factor (α) in the culture supernatant. Compounds can be tested for inhibition of cytokine biosynthesis by incubating mouse macrophage cell line Raw 264.7 in a culture with the compound(s) at a single concentration of, for example, 5 μM and analyzing for tumor necrosis factor (α) in the culture supernatant. The ability to modulate cytokine biosynthesis, for example, induce the biosynthesis of one or more cytokines, makes the compounds useful in the treatment of a variety of conditions such as viral diseases and neoplastic diseases, that are responsive to such changes in the immune response. […]
(§1) Raw cells (ATCC) are harvested by gentle scraping and then counted. […]
The compounds are solubilized in dimethyl sulfoxide (DMSO). […] LPS (Lipopolysaccaride from Salmonella typhimurium, Sigma-Aldrich) is diluted with colorless RPMI to the EC70 concentration as measured by a dose response assay. […]
Following the incubation the supernatant is removed with a pipet. TNF-α concentration is determined by ELISA using a mouse TNF-α kit (from Biosource International, Camarillo, Calif.). […]
as §1
The compounds are solubilized in dimethyl sulfoxide (DMSO). […] LPS (Lipopolysaccaride from Salmonella typhimurium, Sigma-Aldrich) is diluted with colorless RPMI to the EC70 concentration as measured by dose response assay. […]

Row | Compound | inhibition of production of tumor necrosis factor α (TNF-α)
1 | CCNc1nc2c(N)nc3ccccc3c2n1CC(C)(C)O [Example 7, 1-[4-Amino-2-(ethylamino)-1H-imidazo[4,5-c]quinolin-1-yl]-2-methylpropan-2-ol] | inhibiting production of tumor necrosis factor α (TNF-α)
2 | COCCNc1nc2c(N)nc3ccccc3c2n1CC(C)(C)O [Example 8, 1-{4-Amino-2-[(2-methoxyethyl)amino]-1H-imidazo[4,5-c]quinolin-1-yl}-2-methylpropan-2-ol] | inhibiting production of tumor necrosis factor α (TNF-α)
3 | COCCCNc1nc2c(N)nc3ccccc3c2n1CC(C)(C)O [Example 9, 1-{4-Amino-2-[(3-methoxypropyl)amino]-1H-imidazo[4,5-c]quinolin-1-yl}-2-methylpropan-2-ol] | inhibiting production of tumor necrosis factor α (TNF-α)

Tested on: not given
Test: not given
Conditions: not given

Row | Compound | melting point
4 | CC(C)(O)Cn1c(N)nc2c(N)nc3ccccc3c21 (as salt: hydrobromid) [Example 2, 1-(2,4-Diamino-1H-imidazo[4,5-c]quinolin-1-yl)-2-methylpropan-2-ol hydrobromide] | > 230 °C
5 | CC(C)Cn1c(N)nc2c(N)nc3ccccc3c21 [Example 1, 1-(2-Methylpropyl)-1H-imidazo[4,5-c]quinoline-2,4-diamine] | > 250 °C
6 | CC(C)(Cn1c(N)nc2c(N)nc3ccccc3c21)NS(C)(=O)=O [Example 3, N-[2-(2,4-Diamino-1H-imidazo[4,5-c]quinolin-1-yl)-1,1-dimethylethyl]methanesulfonamide] | > 230 °C
7 | Nc1nc2ccccc2c2c1nc(N)n2Cc1ccccc1 [Example 4, 1-Benzyl-1H-imidazo[4,5-c]quinoline-2,4-diamine] | 254 to 256 °C
8 | CCNc1nc2c(N)nc3ccccc3c2n1CC(C)C [Example 6, N^2-Ethyl-1-(2-methylpropyl)-1H-imidazo[4,5-c]quinoline-2,4-diamine] | 188 to 190 °C
9 | CCNc1nc2c(N)nc3ccccc3c2n1CC(C)(C)O [Example 7, 1-[4-Amino-2-(ethylamino)-1H-imidazo[4,5-c]quinolin-1-yl]-2-methylpropan-2-ol] | 233 to 235 °C
10 | COCCNc1nc2c(N)nc3ccccc3c2n1CC(C)(C)O [Example 8, 1-{4-Amino-2-[(2-methoxyethyl)amino]-1H-imidazo[4,5-c]quinolin-1-yl}-2-methylpropan-2-ol] | 176 to 178 °C
11 | COCCCNc1nc2c(N)nc3ccccc3c2n1CC(C)(C)O [Example 9, 1-{4-Amino-2-[(3-methoxypropyl)amino]-1H-imidazo[4,5-c]quinolin-1-yl}-2-methylpropan-2-ol] | 209 to 210 °C
12 | CCNc1nc2c(N)nc(C)c(C)c2n1CC(C)C [Example 16, N^2-Ethyl-6,7-dimethyl-1-(2-methylpropyl)-1H-imidazo[4,5-c]pyridine-2,4-diamine] | 168 to 170 °C
13 | CC(C)(O)Cn1c(N)nc2c(N)nc3c(c21)CCCC3 [Example 18, 1-(2,4-Diamino-6,7,8,9-tetrahydro-1H-imidazo[4,5-c]quinolin-1-yl)-2-methylpropan-2-ol] | > 270 °C
14 | CC(C)(F)Cn1c(N)nc2c(N)nc3ccccc3c21 [Example 43, 1-(2-Fluoro-2-methylpropyl)-1H-imidazo[4,5-c]quinoline-2,4-diamine] | 251 °C
15 | C[C@H](c1ccccc1)n1c(N)nc2c(N)nc3ccccc3c21 [Example 44, 1-[(1R)-1-Phenylethyl]-1H-imidazo[4,5-c]quinoline-2,4-diamine] | 156 to 160 °C
16 | C[C@@H](c1ccccc1)n1c(N)nc2c(N)nc3ccccc3c21 [Example 45, 1-[(1S)-1-Phenylethyl]-1H-imidazo[4,5-c]quinoline-2,4-diamine] | 135 to 140 °C
17 | Nc1nc2ccccc2c2c1nc(N)n2CC1(O)CCC1 [Example 46, 1-[(2,4-Diamino-1H-imidazo[4,5-c]quinolin-1-yl)methyl]cyclobutanol] | 295 °C (dec.)
18 | COC(=O)Nc1nc2c(N)nc3ccccc3c2n1CC(C)(C)O [Example 181, Methyl [4-amino-1-(2-hydroxy-2-methylpropyl)-1H-imidazo[4,5-c]quinolin-2-yl]carbamate] | 255 to 258 °C (dec.)
